Data on 38 molecules can be found in US9745328B2, “Flap modulators” (JANSSEN PHARMACEUTICA NV, priority 2013, dated 2017).

Where a name gives a salt, the structure may show the parent alone.

Chain of human FLAP (P20292 whole entry): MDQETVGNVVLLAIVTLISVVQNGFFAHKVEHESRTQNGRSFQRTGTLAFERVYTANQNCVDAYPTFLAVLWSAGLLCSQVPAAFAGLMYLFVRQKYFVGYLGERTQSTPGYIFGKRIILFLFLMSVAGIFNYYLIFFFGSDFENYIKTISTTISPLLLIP

For one test, the target named is human FLAP (Homo sapiens (Human), UniProt P20292). The test is described as follows: FLAP binding assay (HTRF format). As to conditions: Table 6 (additional runs), human FLAP wild type. The method in brief:
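Samples were run in duplicate on each of two plates and the plate results averaged. Read-out is the HTRF signal ratio.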
In general terms: TR-FRET usually uses a lanthanide donor and a delayed reading to cut background.
Regarding `CS(=O)(=O)N1CCN(S(=O)(=O)c2ccccc2-c2ccc(-c3cnc(N)cn3)c(F)c2)CC1` [Example 56, 5-(3-Fluoro-2′-{[4-(methylsulfonyl)piperazin-1-yl]sulfonyl}biphenyl-4-yl)pyrazin-2-amine], the Ki (commonly the dissociation constant of the complex between target and ligand, obtained from inhibition or displacement) worked out at 8.8 nM.

`Nc1ncc(-c2ccc(-c3ccccc3Sc3ccnc(N)n3)cc2F)cn1` [Example 335, 4-{[4′-(2-Aminopyrimidin-5-yl)-3′-fluorobiphenyl-2-yl]sulfanyl}pyrimidin-2-amine formate salt]: the Ki amounted to 1.9 nM.

In the case of `Nc1cnc(-c2ccc(-c3ccccc3Sc3ncncc3N)cc2F)cn1` [Example 217, 4-{[4′-(5-Aminopyrazin-2-yl)-3′-fluorobiphenyl-2-yl]sulfanyl}pyrimidin-5-amine hydrochloride], the Ki was 1.2 nM.

`CC(=O)N1CCN(S(=O)(=O)c2ccccc2-c2ccc(-c3cnc(N)cn3)c(F)c2)CC1` [Example 57, 5-{2′-[(4-Acetylpiperazin-1-yl)sulfonyl]-3-fluorobiphenyl-4-yl}pyrazin-2-amine] had a Ki of 13.4 nM.

The molecule `CC(C)(O)CNS(=O)(=O)c1ccccc1-c1ccc(-c2cnc(N)cn2)c(F)c1` [Example 101, 4′-(5-Aminopyrazin-2-yl)-3′-fluoro-N-(2-hydroxy-2-methylpropyl)biphenyl-2-sulfonamide] gave a Ki of 1.8 nM.

`C[C@H](NS(=O)(=O)c1ccccc1-c1ccc(-c2cnc(N)nc2)c(F)c1)C(F)(F)F` [Example 297, 4′-(2-Aminopyrimidin-5-yl)-3′-fluoro-N-[(1S)-2,2,2-trifluoro-1-methylethyl]biphenyl-2-sulfonamide trifluoroacetic acid salt] came in with a Ki of 3.2 nM.

`Nc1cnc(-c2ccc(-c3ccccc3S(=O)(=O)N3CCC(O)(C(F)(F)F)CC3)cc2F)cn1` [Example 55, 1-{[4′-(5-Aminopyrazin-2-yl)-3′-fluorobiphenyl-2-yl]sulfonyl}-4-(trifluoromethyl)piperidin-4-ol] yielded a Ki of 1.1 nM.

Regarding `Nc1cnc(-c2ccc(-c3ccccc3CS(=O)(=O)N3CCC(N)CC3)cc2F)cn1` [Example 229, 5-(2′-{[(4-Aminopiperidin.-1-yl)sulfonyl]methyl}-3-fluorobiphenyl-4-yl)pyrazin-2-amine hydrochloride], the Ki came to 1070 nM.

For `CC(CO)NS(=O)(=O)c1ccccc1-c1ccc(-c2cnc3[nH]ccc3n2)c(F)c1` (stereo in doubt) [Example 380, 3′-Fluoro-N-[(1S)-2-hydroxy-1-methylethyl]4′-(5H-pyrrolo[2,3-b]pyrazin-2-yl)biphenyl-2-sulfonamide], the Ki came to 1.1 nM.

As for `CC1(NS(=O)(=O)c2ccccc2-c2ccc(-c3cnc(N)cn3)c(F)c2)CCC1` [Example 11, 4′-(5-Aminopyrazin-2-yl)-3′-fluoro-N-(1-methylcyclobutyl)biphenyl-2-sulfonamide], the Ki was found to be 1.6 nM.

In turn, `Nc1cnc(-c2ccc(-c3ccccc3S(=O)(=O)N3CC(F)(F)C3)cc2F)cn1` [Example 52, 5-{2′-[(3,3-Difluoroazetidin-1-yl)sulfonyl]-3-fluorobiphenyl-4-yl}pyrazin-2-amine] returned a Ki of 3.7 nM.

The molecule `Nc1cnc(-c2ccc(-c3ccccc3S(=O)(=O)N3CC(O)C3)cc2F)cn1` [Example 119, 1-{[4′-(5-Aminopyrazin-2-yl)-3′-fluorobiphenyl-2-yl]sulfonyl}azetidin-3-ol] registered a Ki of 2.7 nM.

Consider `Nc1cnc(-c2ccc(-c3ccccc3Sc3cc(N)ncn3)cc2F)cn1` [Example 215, 6-{[4′-(5-Aminopyrazin-2-yl)-3′-fluorobiphenyl-2-yl]sulfanyl}pyrimidin-4-amine hydrochloride], for which affinity was put at a Ki of 2.4 nM.

`CNS(=O)(=O)c1cc(C(F)(F)F)ccc1-c1ccc(-c2cnc(N)cn2)c(F)c1` [Example 208, 4′-(5-Aminopyrazin-2-yl)-3′-fluoro-N-methyl-4-(trifluoromethyl)biphenyl-2-sulfonamide] had a Ki of 0.4 nM.

In the case of `Nc1cnc(-c2ccc(-c3ccccc3S(=O)(=O)NCC3(O)CCCCC3)cc2F)cn1` [Example 99, 4′-(5-Aminopyrazin-2-yl)-3′-fluoro-N-[(1-hydroxycyclohexyl)methyl]biphenyl-2-sulfonamide], the Ki worked out at 1.6 nM.

On to `Nc1ncc(-c2ccc(-c3ccccc3S(=O)(=O)N3CCCC3)cc2F)cn1` [Example 298, 5-[3-Fluoro-2′-(pyrrolidin-1-ylsulfonyl)biphenyl-4-yl]pyrimidin-2-amine trifluoroacetic acid salt], for which the Ki turned out to be 80.6 nM.

With `Nc1ncc(-c2ccc(-c3ccccc3S(=O)(=O)N[C@@H](c3ccccc3)C(F)(F)F)cc2F)cn1` [Example 292, 4′-(2-Aminopyrimidin-5-yl)-3′-fluoro-N-[(1S)-2,2,2-trifluoro-1-phenylethyl]biphenyl-2-sulfonamide trifluoroacetic acid salt], the Ki was 9.9 nM.

`Nc1cnc(-c2ccc(-c3ccccc3Sc3ncccn3)cc2F)cn1` [Example 213, 5-[3-Fluoro-2′-(pyrimidin-2-ylsulfanyl)biphenyl-4-yl]pyrazin-2-amine hydrochloride] registered a Ki of 2.4 nM.

`CNS(=O)(=O)c1cc(C(F)(F)F)ccc1-c1ccc(-c2cnc(N)nc2)c(F)c1` [Example 325, 4′-(2-aminopyrimidin-5-yl)-3′-fluoro-N-methyl-4-(trifluoromethyl)biphenyl-2-sulfonamide] gave a Ki of 4.7 nM.

`Nc1cnc(-c2ccc(-c3ccccc3S(=O)(=O)N[C@@H](c3ccccc3)C(F)(F)F)cc2F)cn1` [Example 19] yielded a Ki of 2.2 nM.

`CC(C)[C@@H](CO)NS(=O)(=O)c1ccccc1-c1ccc(-c2cnc(N)cn2)c(F)c1` [Example 148, (S)-4′-(5-aminopyrazin-2-yl)-3′-fluoro-N-(1-hydroxy-3-methylbutan-2-yl)-[1,1′-biphenyl]-2-sulfonamide] came in with a Ki of 2.5 nM.

In turn, `Nc1ncc(-c2ccc(-c3ccccc3S(=O)(=O)N[C@H]3CCNC3=O)cc2F)cn1` [Example 263, 4′-(2-Aminopyrimidin-5-yl)-3′-fluoro-N-[(3S)-2-oxopyrrolidin-3-yl]biphenyl-2-sulfonamide] gave a Ki of 127 nM.

`CC[C@H](CO)NS(=O)(=O)c1ccccc1-c1ccc(-c2cnc(N)cn2)c(F)c1` [Example 86, 4′-(5-Aminopyrazin-2-yl)-3′-fluoro-N-[(1R)-1-(hydroxymethyl)propyl]biphenyl-2-sulfonamide] registered a Ki of 2.6 nM.

Consider `CC(C)(C)OC(=O)NCCNS(=O)(=O)c1ccccc1-c1ccc(-c2cnc(N)cn2)c(F)c1` [Example 151], for which the Ki is 1.3 nM.

Molecule `CCSc1ccccc1-c1ccc(-c2cnc3[nH]ccc3n2)c(F)c1` [Example 384, 2-[2′-(Ethylsulfanyl)-3-fluorobiphenyl-4-yl]-5H-pyrrolo[2,3-b]pyrazine] came in with a Ki of 3.9 nM.

With `CS(=O)(=O)Nc1ccccc1-c1ccc(-c2cnc(N)cn2)c(F)c1` [Example 2, N-[4′-(5-Aminopyrazin-2-yl)-3′-fluorobiphenyl-2-yl]methanesulfonamide], the Ki stood at 178 nM.

The test is the same for the next values; noted with them: human FLAP wild type, Table 6 (additional runs).
For the molecule `Nc1ncc(-c2ccc(-c3cccnc3OC3CCS(=O)(=O)CC3)cc2F)cn1` [Example 648, 5-(4-{2-[(1,1-Dioxidotetranydro-2H-thiopyran-4-yl)oxy]pyridin-3-yl}-2-fluorophenyl)pyrimidin-2-amine], affinity was put at a Ki of 834 nM.

As for `Nc1cnc(-c2ccc(-c3ccccc3Oc3nccc(N)n3)cc2F)cn1` [Example 528, 2-{[4′-(5-Aminopyrazin-2-yl)-3′-fluorobiphenyl-2-yl]oxy}pyrimidin-4-amine], the Ki is 5.5 nM.

For the molecule `Nc1cnc(-c2ccc(-c3ccc(C(F)(F)F)cc3Oc3ncccn3)cc2F)cn1` [Example 551, 5-[3-Fluoro-2′-(pyrimidin-2-yloxy)-4′-(trifluoromethyl)biphenyl-4-yl]pyrazin-2-amine], the Ki came out at 0.4 nM.

`CC(C)(C)NS(=O)(=O)c1ccccc1-c1ccc(-c2ccc(N)cn2)c(F)c1` [Example 427, 4′-(5-Aminepyridin-2-yl)-N-tert-butyl-3′-fluoro-biphenyl-2-sulfonamide] displayed a Ki of 43.9 nM.

On to `Nc1cnc(-c2ccc(-c3cccnc3OC3CCCCC3)cc2F)cn1` [Example 403, 5-{4-[2-(Cyclohexyloxy)pyridin-3-yl]-2-fluorophenyl}pyrazin-2-amine], for which the Ki was 69.8 nM.

As for `Cc1cc(N)nc(Oc2ccccc2-c2ccc(-c3cnc(N)nc3)c(F)c2)n1` [Example 617, 5-{2′-[(4-Amino-6-methylpyrimidin-2-yl)oxy]-3-fluorobiphenyl-4-yl}pyrimidin-2-amine], the Ki amounted to 162 nM.

Molecule `Nc1cnc(-c2ccc(-c3cccnc3OC3CCNCC3)cc2F)cn1` [Example 645] displayed a Ki above 10000 nM.

Take `CC(C)(C)NS(=O)(=O)c1ccccc1-c1ccc(-c2ccc3[nH]nc(N)c3c2)c(F)c1` [Example 597, 4′-(3-Amino-1H-indazol-5-yl)-N-tert-butyl-3′-fluorobiphenyl-2-sulfonamide]: the Ki is around 2500 nM.

Molecule `Nc1ncc(-c2ccc(-c3ccccc3Oc3cccc(C(F)(F)F)n3)cc2F)cn1` [Example 624, 5-(3-Fluoro-2′-{[6-(trifluoromethyl)pyridin-2-yl]oxy}biphenyl-4-yl)pyrimidin-2-amine] came in with a Ki of 32.7 nM.

With `Nc1cnc(-c2ccc(-c3ccc(OC(F)(F)F)cc3F)cc2F)cn1` [Example 467, 5-[2′,3-Difluoro-4′-(trifluoromethoxy)biphenyl-4-yl]pyrazin-2-amine], the Ki was determined as 53.5 nM.

`COc1ccccc1-c1ccc(-c2cnc(N)cn2)c(F)c1` [Example 473, 5-(3-Fluoro-2′-methoxybiphenyl-4-yl)pyrazin-2-amine] returned a Ki of 73 nM.

Turning to `N#Cc1cc(Oc2ccccc2-c2ccc(-c3cnc(N)nc3)c(F)c2)ccn1` [Example 538, 4-{[4′-(2-Aminopyrimidin-5-yl)-3′-fluorobiphenyl-2-yl]oxy}pyridine-2-carbonitrile], the Ki stood at 20.2 nM.

The same test, now with this note: human FLAP wild type, a calculated value of 0.000 indicates Ki less than 1 nM.
`Nc1cnc(-c2ccc(-c3ccc(C(F)(F)F)cc3Oc3ncccn3)cc2F)cn1` [Example 551, 5-[3-Fluoro-2′-(pyrimidin-2-yloxy)-4′-(trifluoromethyl)biphenyl-4-yl]pyrazin-2-amine]: the Ki was below 1 nM.

On to `CNS(=O)(=O)c1cc(C(F)(F)F)ccc1-c1ccc(-c2cnc(N)cn2)c(F)c1` [Example 208, 4′-(5-Aminopyrazin-2-yl)-3′-fluoro-N-methyl-4-(trifluoromethyl)biphenyl-2-sulfonamide], for which the Ki is below 1 nM.
